These results are taken from ChEMBL document CHEMBL4002636, “Alkaloids from the mangrove endophytic fungus Diaporthe phaseolorum SKS019” (Bioorg Med Chem Lett, 2017).

pIC50: −log10 of the molar value. Active and inactive are the calls of the source. The calls are words filed in the database; no cut-off is given here.

The subject of assay [1] is MDA-MB-435. Nature of the assay: Cytotoxicity against human MDA-MB-435 cells assessed as growth inhibition after 48 hrs by MTT assay. In kind it is functional, cell-based. The settings on record: MDA-MB-435, 48 h. In general terms: Tetrazolium assays rely on reduction of a dye to a coloured formazan, in cell work by metabolically active cells.
Assay [2] concerns HepG2. Nature of the assay: Cytotoxicity against human HepG2 cells assessed as growth inhibition after 48 hrs by MTT assay. It counts as functional, cell-based. The conditions noted are these: HepG2, 48 h.
Assay [3] relates to HCT-116. Put plainly: Cytotoxicity against human HCT116 cells assessed as growth inhibition after 48 hrs by MTT assay. It counts as functional, cell-based. The conditions noted are these: HCT-116, 48 h.
The test system of assay [4] is NCI-H460. Put plainly: Cytotoxicity against human NCI-H460 cells assessed as growth inhibition after 48 hrs by MTT assay. It counts as functional, cell-based. The settings on record: NCI-H460, 48 h.
Another assay concerns MCF-10A. Nature of the assay: Cytotoxicity against human MCF10A cells assessed as growth inhibition after 48 hrs by MTT assay. In kind it is cell-based.
The test system of assay [5] is MDA-MB-435. Put plainly: Cytotoxicity against human MDA-MB-435 cells assessed as growth inhibition at 50 uM after 48 hrs by MTT assay. In kind it is functional, cell-based.
The test system of assay [6] is HepG2. Put plainly: Cytotoxicity against human HepG2 cells assessed as growth inhibition at 50 uM after 48 hrs by MTT assay. It counts as functional, cell-based.
The subject of assay [7] is HCT-116. Put plainly: Cytotoxicity against human HCT116 cells assessed as growth inhibition at 50 uM after 48 hrs by MTT assay. It counts as functional, cell-based.
Assay [8] has as its system NCI-H460. Nature of the assay: Cytotoxicity against human NCI-H460 cells assessed as growth inhibition at 50 uM after 48 hrs by MTT assay. It counts as functional, cell-based.

The term pIC50 denotes the negative decadic logarithm of the IC50, by convention in mol/L. For `COC(=O)c1cc(OC)c(OC(C)=O)c2oc3cc(C)ncc3c(=O)c12`, the pIC50 in the assay on MDA-MB-435 [1], in the assay on HepG2 [2], with HCT-116 [3], with NCI-H460 [4] and with MCF-10A was less than 4.30 throughout. Further, the “growth inhibition (GI)” value in the assay with MDA-MB-435 [5], in the assay on HepG2 [6], with HCT-116 [7] and in the assay on NCI-H460 [8] was “inactive” each time.

For `COC(=O)c1cc(O)cc2oc3cc(CO)ncc3c(=O)c12`, the negative logarithm of the IC50 (pIC50) in the assay on MDA-MB-435 [1], in the assay with HepG2 [2], in the assay with HCT-116 [3], in the assay on NCI-H460 [4] and in the assay on MCF-10A was less than 4.30 throughout. Further, the “growth inhibition (GI)” value with MDA-MB-435 [5], in the assay with HepG2 [6], with HCT-116 [7] and in the assay with NCI-H460 [8] was “inactive” each time.

As for `O=C(O)CCCCN1Cc2c(O)cc(O)cc2C1=O`, the negative-log IC50 (pIC50) with MDA-MB-435 [1], in the assay with HepG2 [2], in the assay with HCT-116 [3], with NCI-H460 [4] and with MCF-10A was less than 4.30 throughout. In addition, the “growth inhibition (GI)” value with MDA-MB-435 [5], with HepG2 [6], with HCT-116 [7] and with NCI-H460 [8] was “inactive” throughout.

As to `COC(=O)CCCCN1Cc2c(O)cc(O)cc2C1=O`, the negative-log IC50 (pIC50) in the assay on MDA-MB-435 [1], with HepG2 [2], with HCT-116 [3], with NCI-H460 [4] and with MCF-10A was less than 4.30 each time. Also, the “growth inhibition (GI)” value in the assay with MDA-MB-435 [5], with HepG2 [6], with HCT-116 [7] and with NCI-H460 [8] was “inactive” in each case.

Turning to `COC(=O)c1cc(OC)cc2oc3cc(C)ncc3c(=O)c12`, the pIC50 with MDA-MB-435 [1], in the assay on HepG2 [2], in the assay on HCT-116 [3], with NCI-H460 [4] and in the assay with MCF-10A was less than 4.30 throughout. Moreover, the “growth inhibition (GI)” value in the assay on MDA-MB-435 [5], in the assay with HepG2 [6], with HCT-116 [7] and in the assay with NCI-H460 [8] was “inactive” in each case.

Regarding `COC(=O)c1cc(OC)c(OC)c2oc3cc(C)ncc3c(=O)c12`, the negative-log IC50 (pIC50) in the assay with MDA-MB-435 [1], in the assay on HepG2 [2], in the assay on HCT-116 [3], in the assay on NCI-H460 [4] and with MCF-10A was less than 4.30 in each case. Further, the “growth inhibition (GI)” value in the assay with MDA-MB-435 [5], in the assay with HepG2 [6], with HCT-116 [7] and in the assay with NCI-H460 [8] was “inactive” in each case.

Turning to `O=C1c2cc(O)cc(O)c2CN1CCO`, the pIC50 in the assay with MDA-MB-435 [1], with HepG2 [2], in the assay with HCT-116 [3], in the assay with NCI-H460 [4] and with MCF-10A was less than 4.30 each time. For the same compound, the “growth inhibition (GI)” value in the assay on MDA-MB-435 [5], in the assay on HepG2 [6], in the assay with HCT-116 [7] and in the assay on NCI-H460 [8] was “inactive” in each case.

As for `COc1cccc2c1C(=O)c1c(O)c3c(c(O)c1C2=O)C[C@@](O)(C(=O)CO)C[C@@H]3O[C@H]1C[C@H](N)[C@@H](O)[C@H](C)O1` [EPIRUBICIN], the pIC50 was 6.59 in the assay on MDA-MB-435 [1]; 6.49 in the assay on HepG2 [2]; 6.43 in the assay with HCT-116 [3]; 6.92 in the assay on NCI-H460 [4]; 6.89 in the assay on MCF-10A.

As to `COc1cc(O)c2c(c1)C(=O)c1cc(C)ncc1C2=O`, the negative logarithm of the IC50 (pIC50) with MDA-MB-435 [1] was 5.27; in the assay with HepG2 [2] it was less than 4.30; in the assay on HCT-116 [3] it was 4.46; with NCI-H460 [4] it was 5.18; in the assay on MCF-10A, 5.03.
